According to patent publication US20240317735A1, “HYDROISOQUINOLINE OR HYDRONAPHTHYRIDINE COMPOUNDS FOR THE TREATMENT OF AUTOIMMUNE DISEASE” (Hoffmann-La Roche Inc., priority 2020, published 2024):

Target: T1, TLR9 (Homo sapiens, UniProt Q9NR96)
T1 sequence (Q9NR96 26-1032): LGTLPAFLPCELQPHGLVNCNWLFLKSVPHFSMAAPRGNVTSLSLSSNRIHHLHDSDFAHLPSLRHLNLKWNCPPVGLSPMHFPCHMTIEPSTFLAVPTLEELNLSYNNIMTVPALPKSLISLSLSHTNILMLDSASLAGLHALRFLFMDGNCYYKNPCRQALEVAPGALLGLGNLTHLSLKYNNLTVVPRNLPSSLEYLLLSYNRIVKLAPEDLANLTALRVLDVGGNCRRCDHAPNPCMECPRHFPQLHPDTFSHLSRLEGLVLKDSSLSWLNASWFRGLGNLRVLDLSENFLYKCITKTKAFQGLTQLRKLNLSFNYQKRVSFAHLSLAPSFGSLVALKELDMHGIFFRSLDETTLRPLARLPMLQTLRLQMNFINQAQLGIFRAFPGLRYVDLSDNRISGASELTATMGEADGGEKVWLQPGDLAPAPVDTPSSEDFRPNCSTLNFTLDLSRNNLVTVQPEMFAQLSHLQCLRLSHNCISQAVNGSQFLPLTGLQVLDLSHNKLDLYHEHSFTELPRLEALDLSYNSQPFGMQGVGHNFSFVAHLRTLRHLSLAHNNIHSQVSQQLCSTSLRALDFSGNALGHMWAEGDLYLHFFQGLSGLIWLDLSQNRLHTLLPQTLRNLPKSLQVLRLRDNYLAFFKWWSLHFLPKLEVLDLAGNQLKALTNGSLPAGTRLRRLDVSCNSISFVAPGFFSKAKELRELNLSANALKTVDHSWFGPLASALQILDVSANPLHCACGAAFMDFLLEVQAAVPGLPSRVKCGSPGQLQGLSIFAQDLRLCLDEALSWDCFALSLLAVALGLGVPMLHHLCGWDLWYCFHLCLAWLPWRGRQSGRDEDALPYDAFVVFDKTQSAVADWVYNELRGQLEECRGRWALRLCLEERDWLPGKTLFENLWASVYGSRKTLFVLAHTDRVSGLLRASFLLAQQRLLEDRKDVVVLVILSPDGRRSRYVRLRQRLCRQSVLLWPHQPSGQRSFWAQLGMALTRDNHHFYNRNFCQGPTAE
Assay: HEK293-Blue-hTLR-9 cells assay (SEAP reporter, ODN2006 stimulation)
Type: cell-based
Set-up: host or cells: HEK293 (HEK-Blue hTLR9)
Conditions: HEK293-Blue-hTLR9 cells, ODN2006, 20 hrs; read-out: HEK/hTLR9 IC50
Protocol: The following tests were carried out in order to determine the activity of the compounds of formula (I) and (Ia) in HEK293-Blue-hTLR-7/8/9 cells assay.
A stable HEK293-Blue-hTLR-9 cell line was purchased from InvivoGen (Cat. #: hkb-htlr9, San Diego, California, USA). These cells were originally designed for studying the stimulation of human TLR9 by monitoring the activation of NF-κB. A SEAP (secreted embryonic alkaline phosphatase) reporter gene was placed under the control of the IFN-β minimal promoter fused to five NF-κB and AP-1-binding sites. The SEAP was induced by activating NF-κB and AP-1 via stimulating HEK-Blue hTLR9 cells with TLR9 ligands. Therefore the reporter expression was declined by TLR9 antagonist under the stimulation of a ligand, such as ODN2006 (Cat. #: tlrl-2006-1, Invivogen, San Diego, California, USA), for incubation of 20 hrs. The cell culture supernatant SEAP reporter activity was determined using QUANTI-Blue™ kit (Cat. #: rep-qb1, Invivogen, San Diego, California, USA) at a wavelength of 640 nm, a detection medium that turns purple or blue in the presence of alkaline phosphatase.
HEK293-Blue-hTLR9 cells were incubated at a density of 250,000-450,000 cells/mL in a volume of 170 μL in a 96-well plate in Dulbecco's Modified Eagle's medium (DMEM) containing 4.5 g/L glucose, 50 U/mL penicillin, […], […], 2 mM L-glutamine, 10% (v/v) heat-inactivated fetal bovine serum with addition of 20 μL test compound in a serial dilution in the presence of final DMSO at 1% and 10 μL of 20 uM ODN2006 in above DMEM, perform incubation under 37° C. in a CO2 incubator for 20 hrs. Then 20 μL of the supernatant from each well was incubated with 180 μL Quanti-blue substrate solution at 37° C. for 2 h and the absorbance was read at 620˜655 nm using a spectrophotometer.
The signaling pathway that TLR9 activation leads to downstream NF-κB activation has been widely accepted, and therefore similar reporter assay was modified for evaluating TLR9 antagonist.

Row | Structure (SMILES) | IC50 [nM]
1 | C[C@H]1CN(c2ccnc3c2cnn3C)Cc2ccc(N3CC4CNC[C@H]4C3=O)cc21 (relative stereo) [Example 17, cis-5-[(4R)-4-methyl-2-(1-methylpyrazolo[3,4-b]pyridin-4-yl)-3,4-dihydro-1H-isoquinolin-6-yl]-1,2,3,3a,6,6a-hexahydropyrrolo[3,4-c]pyrrol-4-one] | 217
2 | C[C@H]1CN(c2ccnc3c2cnn3C)Cc2ccc(N3C[C@@H]4CCNCC4C3=O)cc21 (relative stereo) [Example 55, cis-2-[(4R)-4-methyl-2-(1-methylpyrazolo[3,4-b]pyridin-4-yl)-3,4-dihydro-1H-isoquinolin-6-yl]-3a,4,5,6,7,7a-hexahydro-1H-pyrrolo[3,4-c]pyridin-3-one] | 137
3 | C[C@H]1CN(c2ccnc3c2cnn3C)Cc2ccc(N3C[C@H]4CCNC[C@H]4C3=O)cc21 (single isomer, unassigned) [Example 56] | 254
4 | C[C@H]1CN(c2ccnc3c2cnn3C)Cc2ccc(N3C[C@@H]4CCNC[C@@H]4C3=O)cc21 (single isomer, unassigned) [Example 57] | 226
5 | C[C@H]1CN(c2ccnc3c2cnn3C)Cc2ccc(N3CCNCC3)cc21 [Example 1, (4R)-4-methyl-2-(1-methylpyrazolo[3,4-b]pyridin-4-yl)-6-piperazin-1-yl-3,4-dihydro-1H-isoquinoline] | 198
6 | Cc1cc(N2Cc3ccc(N4CCNCC4)cc3[C@@H](C)C2)c2cnn(C)c2n1 [Example 2, (4R)-2-(1,6-dimethylpyrazolo[3,4-b]pyridin-4-yl)-4-methyl-6-piperazin-1-yl-3,4-dihydro-1H-isoquinoline] | 86
7 | Cn1ncc2c(N3CCc4cc(N5CCNCC5)ccc4C3)ccnc21 [Example 3, 2-(1-methylpyrazolo[3,4-b]pyridin-4-yl)-6-piperazin-1-yl-3,4-dihydro-1H-isoquinoline] | 185
8 | Cc1cc(N2Cc3ccc(N4CCC5(CCNCC5)CC4)cc3C(C)C2)c2cnn(C)c2n1 (stereo not drawn) [Example 5, 3-[2-(1,6-dimethylpyrazolo[3,4-b]pyridin-4-yl)-4-methyl-3,4-dihydro-1H-isoquinolin-6-yl]-3,9-diazaspiro[5.5]undecane] | 123
9 | Cn1ncc2c(N3Cc4ccc(N5CCC6(CCNCC6)CC5)cc4C(C)(C)C3)ccnc21 [Example 6, 3-[4,4-dimethyl-2-(1-methylpyrazolo[3,4-b]pyridin-4-yl)-1,3-dihydroisoquinolin-6-yl]-3,9-diazaspiro[5.5]undecane] | 112
10 | C[C@H]1CN(c2ccnc3c2cnn3C)Cc2ccc(N3CCN(C(=O)C4CCNCC4)CC3)cc21 [Example 7, 4-piperidyl-[4-[(4R)-4-methyl-2-(1-methylpyrazolo[3,4-b]pyridin-4-yl)-3,4-dihydro-1H-isoquinolin-6-yl]piperazin-1-yl]methanone] | 104
11 | C[C@H]1CN(c2ccnc3c2cnn3C)Cc2ccc(N3CCN(c4cc5c(cn4)CCNC5)CC3)cc21 [Example 9, 7-[4-[(4R)-4-methyl-2-(1-methylpyrazolo[3,4-b]pyridin-4-yl)-3,4-dihydro-1H-isoquinolin-6-yl]piperazin-1-yl]-1,2,3,4-tetrahydro-2,6-naphthyridine] | 117
12 | C[C@H]1CN(c2ccnc3c2cnn3C)Cc2ccc(OC[C@H]3CNCCN3)cc21 [Example 18, (4R)-4-methyl-2-(1-methylpyrazolo[3,4-b]pyridin-4-yl)-6-[[(2R)-piperazin-2-yl]methoxy]-3,4-dihydro-1H-isoquinoline] | 111
13 | C[C@H]1CN(c2ccnc3c2cnn3C)Cc2ccc(OC[C@@H]3CNCCN3)cc21 [Example 19, (4R)-4-methyl-2-(1-methylpyrazolo[3,4-b]pyridin-4-yl)-6-[[(2S)-piperazin-2-yl]methoxy]-3,4-dihydro-1H-isoquinoline] | 101

The remaining lines, values ahead:

Row | IC50 [nM] | Structure (SMILES)
14 | 210 | C[C@H]1CN(c2ccnc3c2cnn3C)Cc2ccc(N3C[C@@]4(CCNC4)CC3=O)cc21 (single isomer, unassigned) [Example 53]
15 | 334 | C[C@H]1CN(c2ccnc3c2cnn3C)Cc2ccc(N3C[C@]4(CCNC4)CC3=O)cc21 (single isomer, unassigned) [Example 54]
16 | 275 | CC1CN(c2ccnc3c2cnn3C)Cc2ccc(N3CCC4(CCNCC4)CC3)cc21 (stereo not drawn) [Example 4, 3-[4-methyl-2-(1-methylpyrazolo[3,4-b]pyridin-4-yl)-3,4-dihydro-1H-isoquinolin-6-yl]-3,9-diazaspiro[5.5]undecane]
17 | 140 | C[C@H]1CN(c2ccnc3c2cnn3C)Cc2ccc(N3CCN(C(=O)C4CCCN4)CC3)cc21 (stereo partly drawn) [Example 8, pyrrolidin-2-yl-[4-[(4R)-4-methyl-2-(1-methylpyrazolo[3,4-b]pyridin-4-yl)-3,4-dihydro-1H-isoquinolin-6-yl]piperazin-1-yl]methanone]
18 | 58 | C[C@H]1CN(c2ccnc3c2cnn3C)Cc2ccc(N3CCC(N4CCNCC4)CC3)cc21 [Example 10, (4R)-4-methyl-2-(1-methylpyrazolo[3,4-b]pyridin-4-yl)-6-(4-piperazin-1-yl-1-piperidyl)-3,4-dihydro-1H-isoquinoline]
19 | 63 | CO[C@@H]1CN(C2CCN(c3ccc4c(c3)[C@@H](C)CN(c3ccnc5c3cnn5C)C4)CC2)C[C@H]1N [Example 11, (3R,4R)-4-methoxy-1-[1-[(4R)-4-methyl-2-(1-methylpyrazolo[3,4-b]pyridin-4-yl)-3,4-dihydro-1H-isoquinolin-6-yl]-4-piperidyl]pyrrolidin-3-amine]
20 | 298 | C[C@H]1CN(c2ccnc3c2cnn3C)Cc2ccc(N3CCN(C(=O)C4CNCCO4)CC3)cc21 (stereo partly drawn) [Example 12, morpholin-2-yl-[4-[(4R)-4-methyl-2-(1-methylpyrazolo[3,4-b]pyridin-4-yl)-3,4-dihydro-1H-isoquinolin-6-yl]piperazin-1-yl]methanone]
21 | 399 | C[C@H]1CN(c2ccnc3c2cnn3C)Cc2ccc(N3CCC(O)(CN(C)C)CC3)cc21 [Example 13, 4-[(dimethylamino)methyl]-1-[(4R)-4-methyl-2-(1-methylpyrazolo[3,4-b]pyridin-4-yl)-3,4-dihydro-1H-isoquinolin-6-yl]piperidin-4-ol]
22 | 158 | Cc1cc(N2Cc3ccc(N4CCC(O)(CN(C)C)CC4)cc3[C@@H](C)C2)c2cnn(C)c2n1 [Example 14, 4-[(dimethylamino)methyl]-1-[(4R)-2-(1,6-dimethylpyrazolo[3,4-b]pyridin-4-yl)-4-methyl-3,4-dihydro-1H-isoquinolin-6-yl]piperidin-4-ol]
23 | 309 | CC1CN(c2ccc3c(c2)[C@@H](C)CN(c2ccnc4c2cnn4C)C3)CCN1 (stereo partly drawn) [Example 15, (4R)-4-methyl-6-(3-methylpiperazin-1-yl)-2-(1-methylpyrazolo[3,4-b]pyridin-4-yl)-3,4-dihydro-1H-isoquinoline]
24 | 63 | C[C@H]1CN(c2ccnc3c2cnn3C)Cc2ccc(N3CC4(CCNCC4)CC3=O)cc21 [Example 16, 2-[(4R)-4-methyl-2-(1-methylpyrazolo[3,4-b]pyridin-4-yl)-3,4-dihydro-1H-isoquinolin-6-yl]-2,8-diazaspiro[4.5]decan-3-one]
